Assay results: patent US9611252B2 (LifeSci Pharmaceuticals, Inc., priority 2013, dated 2017)

Experiments:
human Plasma Kallikrein = human Plasma Kallikrein (Homo sapiens (Human), UniProt P03952); experiment: In vitro enzyme inhibition of human plasma kallikrein (PFR-AMC cleavage); assay type: biochemical; conditions: human plasma kallikrein, Pro-Phe-Arg-AMC substrate, 37° C.; read-out: hPK IC50
How it was run: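 Compound pre-incubated with human plasma kallikrein 5 min at 37° C in 50 mM Tris-HCl pH 7.5, 150 mM NaCl, 0.01% Triton X-100. Reaction started with PFR-AMC, cleavage read kinetically at 37° C every 43 s for 1 h.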

kallikrein = kallikrein (Homo sapiens (Human), UniProt P03952); experiment: In vitro cellular assay (contact assay): kallikrein activity in ellagic acid-activated human plasma, substrate Z-FR-2-AMC; assay type: biochemical; conditions: human plasma activated with ellagic acid, Z-FR-2-AMC substrate, 37° C.; read-out: Contact Assay EC50
Description: The ability of the compounds disclosed herein to inhibit cellular kallikrein activity was quantified and the respective EC50 value was determined.
All dilutions were prepared in an assay buffer comprising 50 mM Tris-HCl pH 7.2, 150 mM NaCl, and 0.01% Triton X-100.
The ten solutions of the test compounds, prepared by serial dilution, were further diluted 50-fold in the assay buffer.
Human plasma is thawed on ice and centrifuged for 15 min at 4° C. to remove platelets. A 1 mM stock solution of ellagic acid is diluted to 8 μM and mixed with human plasma, after removing platelets, at a ratio of 1:0.8.
A 22.5 μL volume of the final mixture of human plasma and ellagic acid was added to a 96-well microwell plate and the plate was incubated for 15 min at 37° C.
The CINH inhibitor at various concentrations, prepared by serial dilutions as described above, were added to the inhibitor control wells. […] Each CINH concentration is tested in duplicates.
The test compounds at various concentrations, also prepared by serial dilutions as described above, are added to the test wells. […] Each test compound concentration was tested in duplicates.
In addition to the inhibitor control and test wells, the 96 well assay plate includes positive control wells which contained the mixture of human plasma and ellagic acid without C1NH inhibitor or test compounds, and background wells which contained neither the mixture of human plasma and ellagic acid nor the test compounds. The total volume of liquid in positive control and background wells was brought up to 35 μL, using the assay buffer.
The assay plate containing C1NH inhibitors and test compounds mixed with human plasma and ellagic acid and appropriate controls was incubated at 37° C. for 5 min. […] The reagents were mixed well by shaking the plate gently for 30 sec.
The enzyme reaction was quantified by immediate kinetic reading of the assay plate using excitation/emission wavelengths of 330 nm/440 nm respectively. Fluorescence intensity was recorded for 60 min, using a time interval of 43 sec.
The inhibition activity of the test compounds were evaluated using the IC50 values, calculated according to the dose-response curve of the test compounds, fitted using the “log(inhibitor)-response (variable slope)” equation in GraphPadPrism software (GraphPad Software, Inc.).
The percentage inhibition was calculated using the following equation:
[formula] where, Mean(BG) is the average value of the fluorescence intensity of the background wells and Mean(PC) is the average value of the fluorescence intensity of the positive control wells.
Table 4 provides the EC50 values of various compounds disclosed herein.

Chain of kallikrein (P03952 20-638): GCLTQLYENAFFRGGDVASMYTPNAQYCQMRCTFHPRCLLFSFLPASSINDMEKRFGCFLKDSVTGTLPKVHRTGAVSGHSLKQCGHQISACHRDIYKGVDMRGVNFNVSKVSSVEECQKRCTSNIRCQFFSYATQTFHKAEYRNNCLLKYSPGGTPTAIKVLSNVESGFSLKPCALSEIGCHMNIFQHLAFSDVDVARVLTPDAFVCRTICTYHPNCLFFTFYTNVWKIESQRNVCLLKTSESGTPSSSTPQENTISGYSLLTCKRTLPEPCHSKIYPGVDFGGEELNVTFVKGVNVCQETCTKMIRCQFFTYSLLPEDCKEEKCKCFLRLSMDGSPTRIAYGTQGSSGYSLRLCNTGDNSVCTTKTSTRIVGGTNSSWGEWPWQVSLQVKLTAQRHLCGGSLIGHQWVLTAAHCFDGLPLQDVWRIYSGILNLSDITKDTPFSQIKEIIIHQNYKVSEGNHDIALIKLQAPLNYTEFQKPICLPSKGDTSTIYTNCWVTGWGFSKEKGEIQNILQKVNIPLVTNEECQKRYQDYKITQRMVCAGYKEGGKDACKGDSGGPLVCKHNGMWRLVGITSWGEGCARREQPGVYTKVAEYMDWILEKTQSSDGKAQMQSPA
Chain of human Plasma Kallikrein (P03952 20-638): as above

## Cc1ccc2ncc(Cc3cc(C(=O)NCc4cc5c(Cl)c[nH]c5cc4F)ccn3)cc2c1 [Example 116, N-((3-chloro-6-fluoro-1H-indol-5-yl)methyl)-2-((6-methylquinolin-3-yl)methyl) isonicotinamide]
Human Plasma Kallikrein
  IC50: < 100 nM
kallikrein
  EC50: 100 to 1000 nM

## Cc1ccc2ncc(Cc3cc(C(=O)NCc4ccc(N)nc4C)ccn3)cc2c1 [Example 117, N-((6-amino-2-methylpyridin-3-yl)methyl)-2-((6-methylquinolin-3-yl)methyl)isonicotinamide]
Human Plasma Kallikrein
  IC50: < 100 nM
kallikrein
  EC50: 100 to 1000 nM

## Nc1nccc2cc(CNC(=O)c3ccnc(Cc4cnc5ccc(F)cc5c4)c3)ccc12 [Example 118, N-((1-aminoisoquinolin-6-yl)methyl)-2-((6-fluoroquinolin-3-yl)methyl)isonicotinamide]
Human Plasma Kallikrein
  IC50: < 100 nM
kallikrein
  EC50: < 100 nM

## Cc1cc2cc(Cc3cc(C(=O)NCc4ccc5c(N)nccc5c4)ccn3)ccc2cn1 [Example 132, N-((1-aminoisoquinolin-6-yl)methyl)-2-((3-methylisoquinolin-6-yl)methyl)isonicotinamide]
Human Plasma Kallikrein
  IC50: < 100 nM
kallikrein
  EC50: 100 to 1000 nM

## Cc1cnc2ccc(Cc3cc(C(=O)NCc4ccc5c(N)nccc5c4)ccn3)cc2c1 [Example 142, N-((1-aminoisoquinolin-6-yl)methyl)-2-((3-methylquinolin-6-yl)methyl)isonicotinamide]
Human Plasma Kallikrein
  IC50: < 100 nM
kallikrein
  EC50: < 100 nM

## Cc1cnc2ccc(Cc3cc(C(=O)NCc4cc5c(Cl)c[nH]c5cc4F)ccn3)cc2c1 [Example 143, N-((3-chloro-6-fluoro-1H-indol-5-yl)methyl)-2-((3-methylquinolin-6-yl)methyl)isonicotinamide]
Human Plasma Kallikrein
  IC50: < 100 nM
kallikrein
  EC50: 100 to 1000 nM

## Cc1cnc2ccc(Cc3cc(C(=O)NCc4c(C)cc(N)nc4C)ccn3)cc2c1 [Example 144, N-((6-amino-2,4-dimethylpyridin-3-yl)methyl)-2-((3-methylquinolin-6-yl)methyl)isonicotinamide]
Human Plasma Kallikrein
  IC50: < 100 nM
kallikrein
  EC50: < 100 nM

## Cc1cc2cc(Cc3cc(C(=O)NCc4c(C)cc(N)nc4C)ccn3)ccc2cn1 [Example 145, N-((6-amino-2,4-dimethylpyridin-3-yl)methyl)-2-((3-methylisoquinolin-6-yl)methyl)isonicotinamide]
Human Plasma Kallikrein
  IC50: < 100 nM
kallikrein
  EC50: < 100 nM
